Experimental data: ChEMBL document CHEMBL5465560, “Selectivity Literature for EUbOPEN Chemogenomic Library” (2024)

Assays:
[1] = biological target: Cyclin-dependent kinase 14 (Homo sapiens) (UniProt O94921); test: Selectivity interaction (KinomeScan (DiscoverX)) EUB0001049a CDK14; details: at 1 µM
[2] = biological target: Casein kinase I isoform gamma-1 (Homo sapiens) (UniProt Q9HCP0); test: Selectivity interaction (KinomeScan (DiscoverX)) EUB0000666a CSNK1G1; details: at 10 µM
[3] = biological target: T1, Serine/threonine-protein kinase Nek3 (Homo sapiens) (UniProt P51956); test: Selectivity interaction (KinomeScan (DiscoverX)) EUB0000666a NEK3; details: at 10 µM
T1 sequence (whole entry): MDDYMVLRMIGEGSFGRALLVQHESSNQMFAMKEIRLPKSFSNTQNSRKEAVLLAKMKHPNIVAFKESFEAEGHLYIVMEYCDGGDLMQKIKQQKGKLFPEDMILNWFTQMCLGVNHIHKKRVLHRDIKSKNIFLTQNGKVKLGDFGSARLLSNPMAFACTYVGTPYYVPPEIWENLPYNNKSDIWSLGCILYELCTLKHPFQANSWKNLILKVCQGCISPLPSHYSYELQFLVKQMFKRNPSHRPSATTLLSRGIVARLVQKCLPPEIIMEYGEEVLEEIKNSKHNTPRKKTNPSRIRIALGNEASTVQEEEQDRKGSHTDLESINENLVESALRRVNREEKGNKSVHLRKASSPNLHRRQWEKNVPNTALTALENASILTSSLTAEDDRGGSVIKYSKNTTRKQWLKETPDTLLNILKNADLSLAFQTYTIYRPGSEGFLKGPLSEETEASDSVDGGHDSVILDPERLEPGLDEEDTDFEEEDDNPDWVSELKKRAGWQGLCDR

[4] = biological target: Vascular endothelial growth factor receptor 1 (Homo sapiens) (UniProt P17948); test: Selectivity interaction (KinomeScan (DiscoverX)) EUB0001079a FLT1; details: at 1 µM
Vascular endothelial growth factor receptor 1 (Homo sapiens), sequence (P17948 whole entry): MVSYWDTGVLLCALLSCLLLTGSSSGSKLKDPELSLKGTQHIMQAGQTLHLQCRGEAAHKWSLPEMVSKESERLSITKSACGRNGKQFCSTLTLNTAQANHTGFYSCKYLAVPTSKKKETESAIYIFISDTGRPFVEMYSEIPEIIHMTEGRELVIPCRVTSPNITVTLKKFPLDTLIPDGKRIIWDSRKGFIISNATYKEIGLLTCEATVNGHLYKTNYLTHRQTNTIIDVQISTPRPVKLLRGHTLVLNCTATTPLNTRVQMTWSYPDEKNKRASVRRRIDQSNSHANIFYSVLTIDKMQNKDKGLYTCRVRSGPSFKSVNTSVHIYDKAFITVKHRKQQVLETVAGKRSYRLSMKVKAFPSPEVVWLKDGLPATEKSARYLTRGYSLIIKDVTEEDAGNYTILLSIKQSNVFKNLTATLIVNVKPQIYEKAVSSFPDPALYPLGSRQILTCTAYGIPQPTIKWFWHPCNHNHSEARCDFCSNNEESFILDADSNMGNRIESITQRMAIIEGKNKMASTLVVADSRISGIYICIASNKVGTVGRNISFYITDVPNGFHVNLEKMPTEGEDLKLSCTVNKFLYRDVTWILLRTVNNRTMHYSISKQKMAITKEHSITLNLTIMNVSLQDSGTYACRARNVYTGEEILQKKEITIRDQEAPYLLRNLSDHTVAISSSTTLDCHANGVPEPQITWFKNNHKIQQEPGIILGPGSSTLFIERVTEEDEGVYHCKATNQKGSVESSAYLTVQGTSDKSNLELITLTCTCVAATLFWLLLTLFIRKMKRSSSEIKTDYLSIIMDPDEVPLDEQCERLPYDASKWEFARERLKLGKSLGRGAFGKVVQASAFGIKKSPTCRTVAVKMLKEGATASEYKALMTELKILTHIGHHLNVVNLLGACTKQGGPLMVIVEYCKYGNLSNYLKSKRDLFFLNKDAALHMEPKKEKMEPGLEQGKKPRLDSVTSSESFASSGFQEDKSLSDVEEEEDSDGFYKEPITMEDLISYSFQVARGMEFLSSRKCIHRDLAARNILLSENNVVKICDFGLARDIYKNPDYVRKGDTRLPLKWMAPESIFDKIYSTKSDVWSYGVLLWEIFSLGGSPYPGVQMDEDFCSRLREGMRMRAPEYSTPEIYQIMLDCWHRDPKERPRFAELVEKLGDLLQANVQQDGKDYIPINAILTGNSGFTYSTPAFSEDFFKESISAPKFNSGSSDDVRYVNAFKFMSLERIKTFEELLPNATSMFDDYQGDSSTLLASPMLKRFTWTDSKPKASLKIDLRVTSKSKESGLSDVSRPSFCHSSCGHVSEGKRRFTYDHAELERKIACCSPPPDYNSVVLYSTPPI

[5] = biological target: Serine/threonine-protein kinase PAK 1 (Homo sapiens) (UniProt Q13153); details: at 10 µM
Serine/threonine-protein kinase PAK 1 (Homo sapiens), sequence (Q13153 whole entry): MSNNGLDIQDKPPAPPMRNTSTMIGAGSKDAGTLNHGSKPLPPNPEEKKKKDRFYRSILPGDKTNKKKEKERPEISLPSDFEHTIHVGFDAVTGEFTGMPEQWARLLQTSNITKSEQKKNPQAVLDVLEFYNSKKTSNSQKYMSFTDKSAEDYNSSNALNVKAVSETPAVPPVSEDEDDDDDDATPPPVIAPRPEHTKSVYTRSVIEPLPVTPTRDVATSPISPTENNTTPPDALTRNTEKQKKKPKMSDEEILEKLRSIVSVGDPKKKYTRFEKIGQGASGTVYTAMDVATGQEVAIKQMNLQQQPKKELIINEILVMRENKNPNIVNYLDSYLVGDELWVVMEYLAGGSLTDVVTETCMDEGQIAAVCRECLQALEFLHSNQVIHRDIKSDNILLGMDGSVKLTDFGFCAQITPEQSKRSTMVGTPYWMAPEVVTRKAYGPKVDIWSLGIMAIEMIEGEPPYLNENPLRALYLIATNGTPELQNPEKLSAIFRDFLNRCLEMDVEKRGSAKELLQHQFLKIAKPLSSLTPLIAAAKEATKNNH

[6] = biological target: T2, Mitogen-activated protein kinase kinase kinase 3 (Homo sapiens) (UniProt Q99759); test: Selectivity interaction (ActivX KiNativ screen (kinase selectivity in THP-1 cell lysates)) EUB0000639a MAP3K3; format: subcellular; details: lysate, at 0.2 µM
T2 sequence (whole entry): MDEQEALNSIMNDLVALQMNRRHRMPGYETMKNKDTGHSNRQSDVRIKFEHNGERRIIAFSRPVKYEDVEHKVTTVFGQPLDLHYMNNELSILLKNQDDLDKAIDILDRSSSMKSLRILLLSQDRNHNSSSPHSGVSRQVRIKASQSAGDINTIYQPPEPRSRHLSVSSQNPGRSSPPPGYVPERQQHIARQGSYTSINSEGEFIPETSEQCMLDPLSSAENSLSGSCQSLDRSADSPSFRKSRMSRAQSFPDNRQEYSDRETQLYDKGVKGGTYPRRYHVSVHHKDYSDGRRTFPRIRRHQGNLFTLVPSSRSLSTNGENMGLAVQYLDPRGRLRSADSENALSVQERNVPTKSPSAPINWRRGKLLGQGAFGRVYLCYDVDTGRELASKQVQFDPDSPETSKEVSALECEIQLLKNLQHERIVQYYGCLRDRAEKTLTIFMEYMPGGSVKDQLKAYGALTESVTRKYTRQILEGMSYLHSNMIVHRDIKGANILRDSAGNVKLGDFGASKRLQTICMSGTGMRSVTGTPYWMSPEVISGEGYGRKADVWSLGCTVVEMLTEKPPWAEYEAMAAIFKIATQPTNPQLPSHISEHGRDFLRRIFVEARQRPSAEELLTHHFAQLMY

[7] = biological target: Wee1-like protein kinase 2 (Homo sapiens) (UniProt P0C1S8); test: Selectivity interaction (KinomeScan (DiscoverX)) EUB0000092b WEE2; details: at 10 µM
Wee1-like protein kinase 2 (Homo sapiens), sequence (P0C1S8 whole entry, looked up): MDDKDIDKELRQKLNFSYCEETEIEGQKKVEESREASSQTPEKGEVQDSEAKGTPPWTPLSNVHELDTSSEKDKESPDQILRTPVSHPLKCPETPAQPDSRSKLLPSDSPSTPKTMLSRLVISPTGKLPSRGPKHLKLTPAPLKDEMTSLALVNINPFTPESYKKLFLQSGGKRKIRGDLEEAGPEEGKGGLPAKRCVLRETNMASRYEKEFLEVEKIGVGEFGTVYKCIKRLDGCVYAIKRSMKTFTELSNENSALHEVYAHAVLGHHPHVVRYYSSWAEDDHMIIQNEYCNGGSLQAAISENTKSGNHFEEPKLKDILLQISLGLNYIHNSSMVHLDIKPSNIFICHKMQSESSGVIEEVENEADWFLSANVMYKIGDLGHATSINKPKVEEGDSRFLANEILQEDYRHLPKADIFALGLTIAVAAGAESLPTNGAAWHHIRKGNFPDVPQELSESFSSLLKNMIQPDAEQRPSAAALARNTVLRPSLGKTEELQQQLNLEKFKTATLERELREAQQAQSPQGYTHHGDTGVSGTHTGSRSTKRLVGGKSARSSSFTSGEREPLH

[8] = biological target: Atypical kinase COQ8A, mitochondrial (Homo sapiens, UniProt Q8NI60); details: at 10 µM
[9] = biological target: Diacylglycerol kinase alpha (Homo sapiens) (UniProt P23743); test: Selectivity interaction (ActivX KiNativ screen (ex vivo kinase selectivity in human PBMCs)) EUB0001619a DGKA; format: cell-based; details: PBMC, at 1 µM
Diacylglycerol kinase alpha (Homo sapiens), sequence (P23743 whole entry): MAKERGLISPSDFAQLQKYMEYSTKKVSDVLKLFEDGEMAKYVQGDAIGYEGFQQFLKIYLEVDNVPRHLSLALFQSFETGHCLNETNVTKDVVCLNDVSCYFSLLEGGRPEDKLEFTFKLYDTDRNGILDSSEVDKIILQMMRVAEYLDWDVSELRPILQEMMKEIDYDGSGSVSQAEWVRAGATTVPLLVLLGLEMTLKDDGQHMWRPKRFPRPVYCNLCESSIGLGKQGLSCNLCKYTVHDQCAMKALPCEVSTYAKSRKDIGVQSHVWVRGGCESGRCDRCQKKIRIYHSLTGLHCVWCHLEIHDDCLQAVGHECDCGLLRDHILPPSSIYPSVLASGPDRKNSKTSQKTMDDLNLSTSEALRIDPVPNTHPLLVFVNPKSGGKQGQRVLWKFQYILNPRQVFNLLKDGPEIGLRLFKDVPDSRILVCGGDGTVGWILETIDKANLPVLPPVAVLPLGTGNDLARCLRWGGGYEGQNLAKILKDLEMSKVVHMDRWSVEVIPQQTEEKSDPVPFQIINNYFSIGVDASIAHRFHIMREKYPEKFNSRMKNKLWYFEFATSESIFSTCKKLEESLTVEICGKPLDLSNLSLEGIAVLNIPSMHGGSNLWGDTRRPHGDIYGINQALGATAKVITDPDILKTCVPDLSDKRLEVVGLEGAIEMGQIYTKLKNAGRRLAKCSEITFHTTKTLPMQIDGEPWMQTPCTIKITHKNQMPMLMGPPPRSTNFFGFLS

[10] = biological target: Serine/threonine-protein kinase/endoribonuclease IRE1 (Homo sapiens) (UniProt O75460); test: Selectivity interaction (KinomeScan (DiscoverX)) EUB0000695a ERN1; details: at 100 nM
[11] = biological target: Platelet-derived growth factor receptor beta (Homo sapiens, UniProt P09619); test: Selectivity interaction (SelectScreen profiling (Invitrogen)) EUB0000607a PDGFRB; details: at 2 µM
[12] = biological target: T3, cAMP-dependent protein kinase catalytic subunit PRKX (Homo sapiens) (UniProt P51817); test: Selectivity interaction (KinomeScan (DiscoverX)) EUB0000607a PRKX; details: at 10 µM
T3 sequence (whole entry): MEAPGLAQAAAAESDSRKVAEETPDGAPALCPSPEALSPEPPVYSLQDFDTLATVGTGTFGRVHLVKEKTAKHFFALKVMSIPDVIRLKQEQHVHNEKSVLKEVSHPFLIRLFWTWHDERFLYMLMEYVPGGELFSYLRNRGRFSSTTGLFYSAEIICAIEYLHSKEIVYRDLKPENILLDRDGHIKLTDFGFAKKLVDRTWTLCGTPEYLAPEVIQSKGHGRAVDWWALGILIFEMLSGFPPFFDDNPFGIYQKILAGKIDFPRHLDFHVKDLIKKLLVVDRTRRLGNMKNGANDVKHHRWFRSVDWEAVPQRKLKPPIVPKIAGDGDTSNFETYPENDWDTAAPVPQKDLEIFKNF

[13] = tested on: Phosphatidylinositol 4,5-bisphosphate 3-kinase catalytic subunit alpha isoform (Homo sapiens), P42336 [I800L]; details: at 10 µM
[14] = biological target: Mitogen-activated protein kinase kinase kinase 21 (Homo sapiens) (UniProt Q5TCX8); test: Selectivity interaction (LanthaScreen Eu Kinase Binding Assay) EUB0001632a MAP3K21; details: at 10 µM
Mitogen-activated protein kinase kinase kinase 21 (Homo sapiens), sequence (Q5TCX8 whole entry): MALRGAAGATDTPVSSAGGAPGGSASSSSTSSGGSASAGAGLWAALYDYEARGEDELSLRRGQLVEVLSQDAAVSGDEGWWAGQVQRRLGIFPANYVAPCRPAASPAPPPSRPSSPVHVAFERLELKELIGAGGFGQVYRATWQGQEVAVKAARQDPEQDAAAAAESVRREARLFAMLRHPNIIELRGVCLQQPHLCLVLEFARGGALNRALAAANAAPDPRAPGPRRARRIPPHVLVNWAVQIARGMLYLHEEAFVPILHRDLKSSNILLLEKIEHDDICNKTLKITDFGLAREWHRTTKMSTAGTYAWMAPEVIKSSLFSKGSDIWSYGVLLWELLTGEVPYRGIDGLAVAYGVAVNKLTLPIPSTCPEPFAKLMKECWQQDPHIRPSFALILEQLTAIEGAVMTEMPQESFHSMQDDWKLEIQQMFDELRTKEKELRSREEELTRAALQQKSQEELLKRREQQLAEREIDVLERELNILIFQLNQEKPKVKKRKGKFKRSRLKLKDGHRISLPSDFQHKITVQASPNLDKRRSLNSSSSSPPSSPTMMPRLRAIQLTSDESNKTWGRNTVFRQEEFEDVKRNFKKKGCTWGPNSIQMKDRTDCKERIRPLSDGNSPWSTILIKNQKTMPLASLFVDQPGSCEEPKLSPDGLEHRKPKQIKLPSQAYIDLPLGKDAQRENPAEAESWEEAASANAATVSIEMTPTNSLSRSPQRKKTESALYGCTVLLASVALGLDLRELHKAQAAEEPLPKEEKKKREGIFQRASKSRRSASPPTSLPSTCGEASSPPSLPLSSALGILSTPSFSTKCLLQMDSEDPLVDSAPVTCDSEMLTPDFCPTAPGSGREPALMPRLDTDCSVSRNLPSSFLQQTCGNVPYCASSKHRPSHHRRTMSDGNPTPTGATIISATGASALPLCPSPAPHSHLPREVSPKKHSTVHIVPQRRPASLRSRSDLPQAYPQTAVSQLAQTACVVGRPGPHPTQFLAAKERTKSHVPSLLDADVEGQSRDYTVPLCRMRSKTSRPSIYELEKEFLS

Casein kinase I isoform gamma-1 (Homo sapiens), sequence (Q9HCP0 whole entry, looked up, canonical isoform): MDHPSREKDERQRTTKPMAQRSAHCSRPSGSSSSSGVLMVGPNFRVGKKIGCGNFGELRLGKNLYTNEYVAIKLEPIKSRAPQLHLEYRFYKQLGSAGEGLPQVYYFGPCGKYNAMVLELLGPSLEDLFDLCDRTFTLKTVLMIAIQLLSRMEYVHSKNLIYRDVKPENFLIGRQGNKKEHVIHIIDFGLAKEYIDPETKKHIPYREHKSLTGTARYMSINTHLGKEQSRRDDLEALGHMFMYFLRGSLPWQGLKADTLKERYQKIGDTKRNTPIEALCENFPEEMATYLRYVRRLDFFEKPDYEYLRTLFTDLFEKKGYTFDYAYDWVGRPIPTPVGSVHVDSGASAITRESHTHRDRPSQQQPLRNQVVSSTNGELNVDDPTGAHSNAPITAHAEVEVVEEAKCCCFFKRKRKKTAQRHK

Compound: COc1cc(Nc2nc(C)cc(-c3cnn4nc(OC)ccc34)n2)cc(C(F)(F)F)c1
- % of control [1]: 87%

Compound: O=C(NOC[C@H](O)CO)c1ccc(F)c(F)c1Nc1ccc(I)cc1F
- % of control [2]: 61%
- % of control [3]: 100%

Compound: Nc1cnc(N2CCc3cc(S(=O)(=O)Nc4c(F)cc(Cl)cc4F)cc(N4CCCC4=O)c32)nc1 [TP-020n]
- % of control [4]: 93%

Compound: CCN(CC)CCCCNc1ncc2cc(-c3cc(OC)cc(OC)c3)c(NC(=O)NC(C)(C)C)nc2n1
- % of control [5]: 100%

Compound: CC[C@@H]1[C@H](F)C(=O)N[C@@H]1COc1nccc2cc(C(N)=O)c(OC)cc12 [ZIMLOVISERTIB]
- % of inhibition [6]: -0.9%

Compound: CCC(=O)N1CCN(c2ccc(-n3c(=O)ccc4cnc5ccc(-c6cnc7ccccc7c6)cc5c43)cc2C(F)(F)F)CC1
- % of control [7]: 100%

Compound: Cc1cc([C@@H](C)Nc2ccccc2C(=O)O)c2nc(N3CCOCC3)cc(=O)n2c1 [AZD-6482]
- % of control [8]: 86%

Compound: N#Cc1cccc(-c2c[nH]c3ncnc(N4CCOCC4)c23)c1
- % of inhibition [9]: -9%

Compound: Cc1cc(F)c(C(=O)Nc2cccc(-c3nncn3C(C)C)n2)cc1-n1cnc(C2CC2)c1
- % of control [10]: 88%

Compound: CNC(=O)Nc1ccc(-c2nc(N3CC4CCC(C3)O4)c3cnn(C4CCC5(CC4)OCCO5)c3n2)cc1
- % of inhibition [11]: 2%
- % of control [12]: 100%
- % of control [13]: 5%

Compound: Cn1cc(-n2cnc3c(NCc4nc5cc(Cl)c(Cl)cc5[nH]4)nc(N4CCOCC4)nc32)cn1
- % of inhibition [14]: -59.8%
